Data published in ChEMBL document CHEMBL1201862, “PubChem BioAssay data set” (2004).
Calls of active or inactive are those of the source.

What was measured:
[1] = A Cell Based Secondary Assay To Explore Cytotoxicity of Compounds that Sensitize Mycobacterium Tuberculosis to Beta-Lactam Antibiotics.; type: functional
[2] = biological target: T1, Heat shock factor protein 1 (Mus musculus, UniProt P38532); experiment: decrease of HSF1-responsive luciferase luminescence – cell-based, NIH3T3, dose retest, confirmation (AID 2382); type: functional;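 also: NIH3T3 fibroblasts with HSF1-driven luciferase reporter stressed by proteasome inhibitor MG132; luminescence from HSF1-driven luciferase expression after 8 hours of MG132 stress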
T1 sequence (P38532 whole entry): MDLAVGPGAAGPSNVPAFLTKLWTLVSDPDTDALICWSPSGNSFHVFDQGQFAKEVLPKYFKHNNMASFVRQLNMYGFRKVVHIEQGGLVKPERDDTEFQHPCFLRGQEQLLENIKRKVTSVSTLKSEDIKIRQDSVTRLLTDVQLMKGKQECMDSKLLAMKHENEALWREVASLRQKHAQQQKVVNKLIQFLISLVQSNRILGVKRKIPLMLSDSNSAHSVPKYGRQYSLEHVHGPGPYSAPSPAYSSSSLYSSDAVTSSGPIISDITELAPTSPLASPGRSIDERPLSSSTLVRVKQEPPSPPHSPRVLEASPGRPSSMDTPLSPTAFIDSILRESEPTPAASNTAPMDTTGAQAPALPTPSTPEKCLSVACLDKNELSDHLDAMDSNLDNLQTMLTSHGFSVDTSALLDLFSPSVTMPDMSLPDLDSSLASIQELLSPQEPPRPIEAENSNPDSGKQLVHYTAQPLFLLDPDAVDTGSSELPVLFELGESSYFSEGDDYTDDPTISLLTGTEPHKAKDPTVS

[3] = NIH-3T3 fibroblast cytotoxicity, dose response, cytotoxicity control, cell-based, fluorescence, Alamar Blue, secondary assay (AID 2327); type: functional;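 also: NIH-3T3 mouse fibroblasts cultured with fluconazole at 8 µg/mL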
[4] = test system: BJ; experiment: BJ-TERT fibroblast viability loss – cell-based, RAS-independent, luminescence, dose response (AID 1933); type: functional; details: Homo sapiens
[5] = test system: BJ; experiment: cells; type: functional, cell-based; details: Homo sapiens
[6] = fluconazole-exposed Candida albicans growth modulators – fluorescence, retest, confirmation (AID 2467); type: functional, cell-based
[7] = test system: BJ; experiment: BJ-TERT-LT-ST fibroblast viability loss – cell-based, RAS-independent, luminescence, dose response (AID 1935); type: functional; details: Homo sapiens;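 also: BJ fibroblasts immortalized with TERT plus LT and ST oncogenes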
[8] = DRD fibroblast viability loss – cell-based, non-viral oncogenic, luminescence, dose response (AID 1934); type: functional; details: Homo sapiens
[9] = HEK-293T viability loss after treatment – luminescence, T-cell screen hits, cytotoxicity control for TCR NF-kB inhibitor project, dose response (AID 489026); type: functional, cell-based;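 also: cells exposed to compound about 14 hours before the viability readout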
[10] = A cytotoxicity screen of small molecule inhibitors of the PhoP region in Salmonella typhi identified in the primary screen. [Related pubchem assays: 1850, 1864, 1985 ]; type: functional
[11] = biological target: Cytochrome P450 2C9 (Homo sapiens, UniProt P11712)
[12] = biological target: T2, Ubiquitin-conjugating enzyme E2 N (Homo sapiens, UniProt P61088); type: functional;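 also: Dose-response confirmation in a TR-FRET assay detecting UBC13-driven polyubiquitin chain formation, inhibition measured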
T2 sequence (P61088 whole entry): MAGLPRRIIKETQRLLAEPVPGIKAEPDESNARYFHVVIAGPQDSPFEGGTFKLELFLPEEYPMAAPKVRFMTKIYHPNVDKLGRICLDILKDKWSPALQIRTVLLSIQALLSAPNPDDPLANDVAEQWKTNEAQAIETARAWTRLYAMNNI

[13] = biological target: Nonstructural protein 1 (Influenza A virus, UniProt Q194T2); type: functional, Influenza A virus (A/California/07/2009(H1N1))
[14] = biological target: T3, DNA repair protein RAD52 homolog (Homo sapiens, UniProt P43351); type: functional, biochemical
T3 sequence (P43351 whole entry): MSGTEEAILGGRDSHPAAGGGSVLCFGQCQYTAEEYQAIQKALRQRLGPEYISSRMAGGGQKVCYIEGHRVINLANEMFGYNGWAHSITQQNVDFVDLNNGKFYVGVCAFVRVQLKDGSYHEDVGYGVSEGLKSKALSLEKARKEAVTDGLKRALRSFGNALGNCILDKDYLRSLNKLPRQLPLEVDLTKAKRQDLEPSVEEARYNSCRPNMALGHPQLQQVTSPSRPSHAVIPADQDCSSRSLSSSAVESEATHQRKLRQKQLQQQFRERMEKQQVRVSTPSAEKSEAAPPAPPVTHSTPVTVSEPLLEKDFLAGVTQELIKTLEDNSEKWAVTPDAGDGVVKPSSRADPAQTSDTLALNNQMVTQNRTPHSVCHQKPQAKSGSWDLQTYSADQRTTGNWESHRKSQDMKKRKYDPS

[15] = biological target: T4, Aminopeptidase N (Plasmodium falciparum FcB1/Columbia, UniProt O96935); experiment: malaria alanyl aminopeptidase activity blockers – biochemical, fluorogenic H-Leu-NHMec substrate, 1536-well (AID 1445); parameters: species or system Plasmodium falciparum 3D7, 3D7
T4 sequence (O96935 whole entry): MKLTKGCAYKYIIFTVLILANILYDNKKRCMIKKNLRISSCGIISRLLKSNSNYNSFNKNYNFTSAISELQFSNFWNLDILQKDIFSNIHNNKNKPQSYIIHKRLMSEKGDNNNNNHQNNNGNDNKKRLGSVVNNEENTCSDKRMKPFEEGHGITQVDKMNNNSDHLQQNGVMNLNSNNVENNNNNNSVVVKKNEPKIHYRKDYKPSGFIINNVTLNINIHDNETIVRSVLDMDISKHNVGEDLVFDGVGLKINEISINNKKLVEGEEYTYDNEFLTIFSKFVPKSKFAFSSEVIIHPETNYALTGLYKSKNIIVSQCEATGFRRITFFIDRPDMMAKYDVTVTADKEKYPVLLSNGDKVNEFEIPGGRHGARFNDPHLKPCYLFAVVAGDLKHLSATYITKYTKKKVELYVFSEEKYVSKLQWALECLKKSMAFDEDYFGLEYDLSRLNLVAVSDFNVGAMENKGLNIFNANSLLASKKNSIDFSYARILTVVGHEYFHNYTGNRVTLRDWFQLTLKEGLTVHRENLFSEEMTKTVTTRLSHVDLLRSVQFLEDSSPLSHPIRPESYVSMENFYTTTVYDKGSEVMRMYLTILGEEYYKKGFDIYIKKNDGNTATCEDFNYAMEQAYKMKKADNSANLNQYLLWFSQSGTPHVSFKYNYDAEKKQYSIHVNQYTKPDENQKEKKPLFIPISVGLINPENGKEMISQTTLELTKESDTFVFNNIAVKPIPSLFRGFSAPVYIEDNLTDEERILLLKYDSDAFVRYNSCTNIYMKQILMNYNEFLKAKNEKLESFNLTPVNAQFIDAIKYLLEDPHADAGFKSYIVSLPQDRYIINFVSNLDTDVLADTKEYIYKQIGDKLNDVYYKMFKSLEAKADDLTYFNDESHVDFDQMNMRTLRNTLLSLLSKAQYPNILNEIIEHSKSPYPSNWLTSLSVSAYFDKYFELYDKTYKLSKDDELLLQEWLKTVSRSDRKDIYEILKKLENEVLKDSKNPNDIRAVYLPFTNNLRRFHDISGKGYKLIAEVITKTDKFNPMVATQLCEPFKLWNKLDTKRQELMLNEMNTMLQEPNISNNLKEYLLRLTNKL

[16] = biological target: T5, RNA-binding protein pos-1 (Caenorhabditis elegans, UniProt G5EF15); experiment: disruptors of C. elegans POS-1 RNA interaction – biochemical, fluorescence polarization, dose response (AID 1964);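 also: purified POS-1 fused to maltose binding protein made in E. coli; potency of compounds blocking POS-1 binding to fluorescent RNA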
T5 sequence (G5EF15 whole entry): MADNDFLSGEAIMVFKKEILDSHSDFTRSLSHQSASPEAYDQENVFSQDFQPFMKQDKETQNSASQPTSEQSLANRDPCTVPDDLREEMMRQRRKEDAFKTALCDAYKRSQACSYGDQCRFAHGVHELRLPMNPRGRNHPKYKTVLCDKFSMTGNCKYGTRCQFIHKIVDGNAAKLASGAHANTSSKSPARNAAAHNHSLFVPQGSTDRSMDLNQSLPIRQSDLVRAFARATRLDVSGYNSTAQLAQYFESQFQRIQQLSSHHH

[17] = biological target: T6, Zinc finger protein mex-5 (Caenorhabditis elegans, UniProt Q9XUB2); experiment: potency of MEX-5 RNA-binding blockers – biochemical, C. elegans, fluorescence polarization, dose response (AID 1960)
T6 sequence (Q9XUB2 whole entry): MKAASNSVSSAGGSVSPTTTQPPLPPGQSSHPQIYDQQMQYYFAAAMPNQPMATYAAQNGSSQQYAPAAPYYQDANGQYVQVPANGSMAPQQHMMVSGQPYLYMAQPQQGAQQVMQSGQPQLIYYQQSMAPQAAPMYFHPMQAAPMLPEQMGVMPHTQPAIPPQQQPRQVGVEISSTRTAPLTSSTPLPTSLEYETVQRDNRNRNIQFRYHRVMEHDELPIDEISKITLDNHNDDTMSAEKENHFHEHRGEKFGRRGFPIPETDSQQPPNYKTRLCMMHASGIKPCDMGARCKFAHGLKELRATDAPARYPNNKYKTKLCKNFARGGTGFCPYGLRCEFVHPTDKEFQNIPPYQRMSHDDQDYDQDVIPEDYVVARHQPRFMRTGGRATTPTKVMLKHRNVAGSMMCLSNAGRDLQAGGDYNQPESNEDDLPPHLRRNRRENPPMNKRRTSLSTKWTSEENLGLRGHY

[18] = biological target: Prothrombin (Homo sapiens, UniProt P00734); experiment: Thrombin 1536 HTS Dose Response Confirmation. [Related pubchem assays: 1046 (Thrombin 1536 HTS; hits were confirmed in this assay)]; type: functional
[19] = biological target: Cytochrome P450 3A4 (Homo sapiens, UniProt P08684);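 also: CYP3A4 tested as one member of a cytochrome P450 panel screen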
[20] = biological target: T7, Polyadenylate-binding protein 1 (Homo sapiens, UniProt P11940); experiment: MLLE binding blockers, Cy5 peptide tracer – biochemical, fluorescence polarization, Cy5-PAM2 peptide, secondary, miRNA deadenylation inhibitor project, dose response (AID 602260); type: functional; details: read-out: IC50_Mean
[21] = biological target: T7, Polyadenylate-binding protein 1; experiment: MLLE domain peptide-binding blockers, IC50 – biochemical, fluorescence polarization, FITC-PAM2 peptide, dose response (AID 602259); type: functional; details: read-out: IC50_Mean
[22] = biological target: T8, Protein skinhead-1 (Caenorhabditis elegans, UniProt P34707); type: functional
T8 sequence (P34707 whole entry): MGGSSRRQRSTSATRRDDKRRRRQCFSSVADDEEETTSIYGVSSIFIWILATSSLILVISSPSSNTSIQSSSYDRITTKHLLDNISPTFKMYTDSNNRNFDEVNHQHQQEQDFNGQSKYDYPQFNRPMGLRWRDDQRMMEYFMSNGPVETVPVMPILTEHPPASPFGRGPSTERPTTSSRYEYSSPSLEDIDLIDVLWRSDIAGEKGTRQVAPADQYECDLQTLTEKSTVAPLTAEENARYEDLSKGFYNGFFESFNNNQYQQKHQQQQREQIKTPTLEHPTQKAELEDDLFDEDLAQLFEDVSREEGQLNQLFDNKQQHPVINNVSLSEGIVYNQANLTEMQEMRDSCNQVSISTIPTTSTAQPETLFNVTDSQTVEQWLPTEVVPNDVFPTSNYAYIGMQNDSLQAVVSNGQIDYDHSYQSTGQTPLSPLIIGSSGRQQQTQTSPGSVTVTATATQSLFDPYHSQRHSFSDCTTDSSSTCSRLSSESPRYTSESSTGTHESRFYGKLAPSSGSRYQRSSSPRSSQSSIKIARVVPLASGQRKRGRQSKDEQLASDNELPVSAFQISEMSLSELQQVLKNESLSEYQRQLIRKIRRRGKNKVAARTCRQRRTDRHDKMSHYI

Sequence of Nonstructural protein 1 (Q194T2 whole entry): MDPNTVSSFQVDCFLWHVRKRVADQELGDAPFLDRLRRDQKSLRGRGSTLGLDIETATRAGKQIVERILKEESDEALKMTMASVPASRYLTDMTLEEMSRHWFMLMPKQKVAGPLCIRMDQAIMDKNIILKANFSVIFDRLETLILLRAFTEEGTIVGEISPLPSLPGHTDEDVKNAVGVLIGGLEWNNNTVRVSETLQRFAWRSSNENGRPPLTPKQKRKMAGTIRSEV
T7 sequence (P11940 whole entry, the tested form may be a part): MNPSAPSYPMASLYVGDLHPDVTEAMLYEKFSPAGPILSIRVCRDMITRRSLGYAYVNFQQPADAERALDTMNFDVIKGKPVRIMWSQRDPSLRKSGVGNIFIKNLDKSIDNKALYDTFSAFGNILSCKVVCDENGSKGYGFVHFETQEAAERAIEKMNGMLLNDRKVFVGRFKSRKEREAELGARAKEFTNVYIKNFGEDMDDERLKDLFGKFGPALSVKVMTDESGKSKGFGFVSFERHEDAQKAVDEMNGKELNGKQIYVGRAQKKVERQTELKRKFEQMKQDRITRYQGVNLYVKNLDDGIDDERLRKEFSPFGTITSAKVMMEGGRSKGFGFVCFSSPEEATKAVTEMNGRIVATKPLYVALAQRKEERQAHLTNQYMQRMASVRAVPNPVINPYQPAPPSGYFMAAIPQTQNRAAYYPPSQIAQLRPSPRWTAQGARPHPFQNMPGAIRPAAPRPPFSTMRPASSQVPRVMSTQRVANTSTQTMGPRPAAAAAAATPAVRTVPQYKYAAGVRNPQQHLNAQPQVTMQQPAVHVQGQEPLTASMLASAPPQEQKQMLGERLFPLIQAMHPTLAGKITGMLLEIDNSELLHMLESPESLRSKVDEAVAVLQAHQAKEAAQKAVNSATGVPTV
Sequence of Cytochrome P450 2C9 (P11712 whole entry): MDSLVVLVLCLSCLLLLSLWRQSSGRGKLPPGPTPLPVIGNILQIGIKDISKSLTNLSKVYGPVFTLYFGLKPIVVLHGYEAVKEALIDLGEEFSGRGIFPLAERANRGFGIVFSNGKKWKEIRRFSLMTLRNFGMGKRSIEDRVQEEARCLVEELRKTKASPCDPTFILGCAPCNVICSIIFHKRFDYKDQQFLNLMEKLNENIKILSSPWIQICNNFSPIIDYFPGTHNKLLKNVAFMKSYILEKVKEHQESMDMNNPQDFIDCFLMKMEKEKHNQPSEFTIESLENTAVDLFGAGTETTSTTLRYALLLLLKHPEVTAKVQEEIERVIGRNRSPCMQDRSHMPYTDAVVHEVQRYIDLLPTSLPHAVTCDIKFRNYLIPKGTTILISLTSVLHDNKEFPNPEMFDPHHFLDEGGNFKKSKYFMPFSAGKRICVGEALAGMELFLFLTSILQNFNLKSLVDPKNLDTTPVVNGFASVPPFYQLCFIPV
Sequence of Cytochrome P450 3A4 (P08684 whole entry): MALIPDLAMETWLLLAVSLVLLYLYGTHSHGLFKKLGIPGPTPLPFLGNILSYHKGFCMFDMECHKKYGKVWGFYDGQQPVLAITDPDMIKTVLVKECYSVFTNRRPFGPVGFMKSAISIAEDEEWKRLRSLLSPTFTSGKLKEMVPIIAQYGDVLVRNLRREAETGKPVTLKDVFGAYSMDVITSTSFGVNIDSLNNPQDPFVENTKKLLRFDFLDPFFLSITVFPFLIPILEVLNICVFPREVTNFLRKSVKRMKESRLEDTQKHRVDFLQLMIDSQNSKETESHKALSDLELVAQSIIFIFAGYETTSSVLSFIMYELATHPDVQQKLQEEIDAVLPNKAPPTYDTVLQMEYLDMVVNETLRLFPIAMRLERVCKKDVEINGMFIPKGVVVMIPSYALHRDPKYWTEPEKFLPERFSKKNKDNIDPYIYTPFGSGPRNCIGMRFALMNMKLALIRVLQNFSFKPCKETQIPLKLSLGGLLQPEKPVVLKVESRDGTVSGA

## Cc1ccc(Cn2c(C(C)Nc3nc(-c4ccc(Cl)cc4)cs3)nc3cc(C(=O)NCCCO)ccc32)cc1 (stereo not given)
[1]
  CC50: > 40 µM (active)

## O=C(Oc1c(-c2ccccc2Cl)oc2ccccc2c1=O)c1ccc(Cl)cc1
[1]
  CC50: > 40 µM (active)
[2]
  EC50: > 195 µM (not active)

## O=C(NCC(c1ccco1)N1CCc2ccccc21)c1ccc([N+](=O)[O-])cc1 (stereo not given)
[1]
  CC50: > 40 µM (active)

## COc1ccc(-[n+]2c(-c3ccccc3)cc(-c3ccc(C)cc3)cc2-c2ccccc2)cc1.[O-][Cl+3]([O-])([O-])[O-]
[3]
  EC50: 7.59 µM (active)
[4]
  EC50: 3.39 µM (active)
[5]
  EC50: 5 µM (active)
[6]
  EC50: 0.037 µM (active)
[7]
  EC50: 19.8 µM (active)
[8]
  EC50: 10 µM (inconclusive)
[9]
  IC50: > 80 µM (inactive)

## COc1ccccc1CNCCc1ccc(F)cc1
[10]
  EC50: > 50 µM (active)

## Cc1ccc(CNC(=O)C2CC(c3ccccc3[N+](=O)[O-])=NO2)cc1 (stereo not given)
[11]
  AC50: inconclusive

## CN1CCC(CN)(N2CCN(c3ccccc3)CC2)CC1
[12]
  IC50: > 20 µM (inactive)
[13]
  IC50: > 100 µM (active)
[14]
  AC50: 23.1 µM (active)

## O=C(O)Cn1c(=O)c2c3c(sc2n(Cc2ccccc2F)c1=O)CCCC3
[10]
  EC50: > 50 µM (active)

## COc1ccc(CNS(=O)(=O)c2cc(-c3cc(C)no3)ccc2C(C)C)cc1
[9]
  IC50: > 80 µM (inactive)

## Cc1ccc(CN2C3=NCCN3c3ccccc32)cc1
[10]
  EC50: > 50 µM (active)

## COc1cccc(C(=O)Nc2cccc(SC)c2)c1
[10]
  EC50: > 50 µM (active)

## COc1ccc(OC[C@@H](CO)OC)cc1
[11]
  AC50: inconclusive

## COc1ccc2nc(SCC(=O)N3CCCCCC3)c(C#N)cc2c1
[1]
  CC50: > 40 µM (active)

## O=C1NC(=O)N(CCc2ccccc2)C(=O)/C1=C/NNC(=O)c1ccncc1
[15]
  IC50: 38.4 µM (active)
[16]
  EC50: > 300 µM (not active)
[17]
  EC50: > 300 µM (not active)
[18]
  IC50: > 50 µM (not active)

## O=C(/C=C/c1cccnc1)c1ccc(O)cc1
[1]
  CC50: 17.5 µM (active)

## Cc1c(/C=N/NC(=O)c2ccc3c(c2)OCO3)cnn1C
[10]
  EC50: > 50 µM (active)
[19]
  AC50: 22.4 µM (inconclusive)

## CCOc1cccc(/C=N/Nc2nc(N3CCCC3)nc(N3CCCC3)n2)c1O
[1]
  CC50: > 40 µM (active)

## Cc1cc2cc(CN=C(S)Nc3ccc(OC(F)(F)F)cc3)ccc2n1C
[13]
  IC50: > 100 µM (active)
[20]
  IC50: > 66 µM (inactive)
[21]
  IC50: > 66 µM (inactive)
[22]
  IC50: > 100 µM (inactive)

## CCOc1cc(C(c2c(C)n[nH]c2O)c2c(C)n[nH]c2O)cc([N+](=O)[O-])c1O
[10]
  EC50: > 50 µM (active)
